{
  "source": "patent US20020020828A1",
  "about": "“Non-toxic ethylene glycol-based antifreeze/heat transfer fluid concentrate and antifreeze/heat transfer fluid” (priority 2000, published 2002)",
  "origin": "cited, not measured here",
  "system": "humans",
  "conditions": "ingestion",
  "data": [
    {"smiles": "OCCO", "note": "[EG, 1,2-ethandiol]", "values": [
      {"measurement": "toxic level in humans (reported as low as)", "value": "1,570 mg/kg"}
    ]}
  ]
}
